The values that follow come from patent US20230142565A1, “MICROBIOCIDAL QUINOLINE DIHYDRO-(THIAZINE)OXAZINE DERIVATIVES” (SYNGENTA CROP PROTECTION AG, priority 2020, published 2023).

Data set [1] has as its system Botryotinia fuckeliana (Botrytis cinerea). Put plainly: Botryotinia fuckeliana (Botrytis cinerea) / liquid culture (gray mould). The format is cell-based. The settings on record: inhibition of growth determined photometrically 3-4 days after application, compared to untreated control. Here is the method: Botryotinia fuckeliana (Botrytis cinerea)/Liquid Culture (Gray Mould) Conidia of the fungus from cryogenic storage are directly mixed into nutrient broth (Vogels broth). After placing a (DMSO) solution of test compound into a microtiter plate (96-well format), the nutrient broth containing the fungal spores is added. The test plates are incubated at 24° C. and the inhibition of growth is determined photometrically 3-4 days after application.

Data set [2] has as its system Monographella nivalis (Microdochium nivale). Put plainly: Monographella nivalis (Microdochium nivale) / liquid culture (foot rot cereals). Format: cell-based. Particulars: inhibition of growth determined photometrically 4-5 days after application, compared to untreated control.
Data set [3] deals with Mycosphaerella graminicola (Septoria tritici). Put plainly: Mycosphaerella graminicola (Septoria tritici) / liquid culture (Septoria blotch). Format: cell-based. Particulars: Zymoseptoria tritici, inhibition of growth determined photometrically 4-5 days after application, compared to untreated control.
The test system of the next data set is Fusarium culmorum. Put plainly: microbe, parasite or virus in culture. The settings on record: read-out: control of Fusarium culmorum. The format is cell-based.

Bounds are passed on as bounds.

Turning to `CC1(C)CC(Cc2ccncc2)N=C(c2cnc3c(F)c(F)ccc3c2)S1` (stereo not drawn) [E.26, 2-(7,8-difluoro-3-quinolyl)-6,6-dimethyl-4-(4-pyridylmethyl)-4,5-dihydro-1,3-thiazine], the inhibition of growth at 20 ppm in data set [1] and in data set [2] was no less than 80% in each case.

With `CC1(C)CC(Cc2nccs2)N=C(c2cnc3c(F)c(F)ccc3c2)S1` (stereo not drawn) [E.14, 2-(7,8-difluoro-3-quinolyl)-6,6-dimethyl-4-(thiazol-2-ylmethyl)-4,5-dihydro-1,3-thiazine], in data set [3], the inhibition of growth at 6 ppm was no less than 80%. The inhibition of growth at 20 ppm in data set [1] and in data set [2] was no less than 80% in each case.

As usually defined, the melting point is the temperature of the solid-liquid transition. As to `CC1(C)CC(Cc2cncs2)N=C(c2cnc3c(F)c(F)ccc3c2)O1` (stereo not drawn) [E.19, 2-(7,8-difluoro-3-quinolyl)-6,6-dimethyl-4-(thiazol-5-ylmethyl)-4,5-dihydro-1,3-oxazine], the melting point was 122 to 127 °C. In addition, the inhibition of growth at 20 ppm in data set [1] was no less than 80%. In data set [2], this molecule yielded an inhibition of growth at 20 ppm of no less than 80%.

Regarding `CC1(C)CC(Cn2cc(F)cn2)N=C(c2cnc3c(F)c(F)ccc3c2)S1` (stereo not drawn) [E.17, 2-(7,8-difluoro-3-quinolyl)-4-[(4-fluoropyrazol-1-yl)methyl]-6,6-dimethyl-4,5-dihydro-1,3-thiazine], the inhibition of growth at 20 ppm in data set [1] and in data set [2] was no less than 80% each time.

Turning to `CC1(C)CC(Cn2cc(C(F)(F)F)cn2)N=C(c2cnc3c(F)c(F)ccc3c2)S1` (stereo not drawn) [E.18, 2-(7,8-difluoro-3-quinolyl)-6,6-dimethyl-4-[[4-(trifluoromethyl)pyrazol-1-yl]methyl]-4,5-dihydro-1,3-thiazine], in data set [2], the inhibition of growth at 20 ppm was no less than 80%.

For `CC1(C)CC(Cc2nccs2)N=C(c2cnc3c(F)c(F)ccc3c2)O1` (stereo not drawn) [E.15, 2-(7,8-difluoro-3-quinolyl)-6,6-dimethyl-4-(thiazol-2-ylmethyl)-4,5-dihydro-1,3-oxazine], the melting point lay in the range of 105 to 113 °C. Also, the inhibition of growth at 6 ppm in data set [3] was no less than 80%. The inhibition of growth at 20 ppm in data set [1] was no less than 80%. The molecule also showed an inhibition of growth at 20 ppm in data set [2] of no less than 80%.

Turning to `CC1(C)CC(Cc2ccsc2)N=C(c2cnc3c(F)cccc3c2)S1` (stereo not drawn) [E.23, 2-(8-fluoro-3-quinolyl)-6,6-dimethyl-4-(3-thienylmethyl)-4,5-dihydro-1,3-thiazine], the inhibition of growth at 20 ppm (in data set [1]; in data set [2]; with Fusarium culmorum) was no less than 80% each time.

For `CC1(C)CC(Cc2ccccn2)N=C(c2cnc3c(F)c(F)ccc3c2)O1` (stereo not drawn) [E.03, 2-(7,8-difluoro-3-quinolyl)-6,6-dimethyl-4-(2-pyridylmethyl)-4,5-dihydro-1,3-oxazine], the melting point was in the range of 120 to 123 °C. The same molecule came in with an inhibition of growth at 20 ppm in data set [1] of no less than 80%. The inhibition of growth at 20 ppm in data set [2] was no less than 80%.

For `CC1(C)CC(Cc2ccccn2)N=C(c2cnc3c(F)c(F)ccc3c2)S1` (stereo not drawn) [E.01, 2-(7,8-difluoro-3-quinolyl)-6,6-dimethyl-4-(2-pyridylmethyl)-4,5-dihydro-1,3-thiazine], the inhibition of growth at 20 ppm (in data set [1]; in data set [2]; in the data set with Fusarium culmorum) was no less than 80% throughout.

`CC1(C)CC(Cc2cccc(F)n2)N=C(c2cnc3c(F)c(F)ccc3c2)O1` (stereo not drawn) [E.04, 2-(7,8-difluoro-3-quinolyl)-4-[(6-fluoro-2-pyridyl)methyl]-6,6-dimethyl-4,5-dihydro-1,3-oxazine]: the melting point fell in the range of 129 to 131 °C. In data set [1], this molecule registered an inhibition of growth at 20 ppm of no less than 80%. The same molecule gave an inhibition of growth at 20 ppm in data set [2] of no less than 80%. Also, the inhibition of growth at 20 ppm with Fusarium culmorum is no less than 80%.

In data set [3], `CC1(C)CC(Cc2cccc(F)n2)N=C(c2cnc3c(F)c(F)ccc3c2)S1` (stereo not drawn) [E.02, 2-(7,8-difluoro-3-quinolyl)-4-[(6-fluoro-2-pyridyl)methyl]-6,6-dimethyl-4,5-dihydro-1,3-thiazine] came in with an inhibition of growth at 6 ppm of no less than 80%. The inhibition of growth at 20 ppm (in data set [1]; in data set [2]; with Fusarium culmorum) was no less than 80% throughout.

In the case of `CC1(C)CC(Cc2ccsc2)N=C(c2cnc3c(F)c(F)ccc3c2)S1` (stereo not drawn) [E.07, 2-(7,8-difluoro-3-quinoyl)-6,6-dimethyl-4-(3-thienylmethyl)-4,5-dihydro-1,3-thiazine], the inhibition of growth at 20 ppm (in data set [1]; in data set [2]; in the data set on Fusarium culmorum) was no less than 80% in each case.

Regarding `CC1(C)CC(Cc2ccc(F)nc2)N=C(c2cnc3c(F)c(F)ccc3c2)S1` (stereo not drawn) [E.24, 2-(7,8-difluoro-3-quinolyl)-4-[(6-fluoro-3-pyridyl)methyl]-6,6-dimethyl-4,5-dihydro-1,3-thiazine], the inhibition of growth at 20 ppm (in data set [1]; in data set [2]; in the data set with Fusarium culmorum) was no less than 80% each time.

Molecule `CC1(C)CC(Cc2cccnc2)N=C(c2cnc3c(F)cccc3c2)S1` (stereo not drawn) [E.20, 2-(8-fluoro-3-quinolyl)-6,6-dimethyl-4-(3-pyridylmethyl)-4,5-dihydro-1,3-thiazine] showed an inhibition of growth at 6 ppm in data set [3] of no less than 80%.

The molecule `CC1(C)CC(Cn2ccc(C(F)F)n2)N=C(c2cnc3c(F)c(F)ccc3c2)S1` (stereo not drawn) [E.12, 4-[[3-(difluoromethyl)pyrazol-1-yl]methyl]-2-(7,8-difluoro-3-quinolyl)-6,6-dimethyl-4,5-dihydro-1,3-thiazine] registered an inhibition of growth at 6 ppm in data set [3] of no less than 80%. Also, the inhibition of growth at 20 ppm in data set [1] and in data set [2] was no less than 80% each time.

On to `CC1(C)CC(Cc2cccnc2)N=C(c2cnc3c(F)c(F)ccc3c2)S1` (stereo not drawn) [E.06, 2-(7,8-difluoro-3-quinolyl)-6,6-dimethyl-4-(3-pyridylmethyl)-4,5-dihydro-1,3-thiazine], for which the inhibition of growth at 20 ppm (in data set [1]; in data set [2]; in the data set with Fusarium culmorum) was no less than 80% each time.

For the molecule `CC1(C)CC(Cc2cscn2)N=C(c2cnc3c(F)c(F)ccc3c2)O1` (stereo not drawn) [E.13, 2-(7,8-difluoro-3-quinolyl)-6,6-dimethyl-4-(thiazol-4-ylmethyl)-4,5-dihydro-1,3-oxazine], the inhibition of growth at 6 ppm in data set [3] is no less than 80%. Moreover, the inhibition of growth at 20 ppm in data set [1] and in data set [2] was no less than 80% throughout.

Turning to `CC1(C)CC(Cc2ccc(Cl)nc2)N=C(c2cnc3c(F)c(F)ccc3c2)O1` (stereo not drawn) [E.09, 4-[(6-chloro-3-pyridyl)methyl]-2-(7,8-difluoro-3-quinolyl)-6,6-dimethyl-4,6-dihydro-1,3-oxazine], the inhibition of growth at 6 ppm in data set [3] is no less than 80%. The inhibition of growth at 20 ppm in data set [1] and in data set [2] was no less than 80% throughout.

With `CC1(C)CC(Cc2ccsc2)N=C(c2cnc3c(F)c(F)ccc3c2)[S+]1[O-]` (stereo not drawn) [E.25, 2-(7,8-difluoro-3-quinolyl)-6,6-dimethyl-4-(3-thienylmethyl)-4,5-dihydro-1,3-thiazine 1-oxide], the inhibition of growth at 20 ppm (in data set [2]; with Fusarium culmorum) was no less than 80% each time.

Turning to `CC1(C)CC(Cc2cnccn2)N=C(c2cnc3c(F)c(F)ccc3c2)S1` (stereo not drawn) [E.05, 2-(7,8-difluoro-3-quinolyl)-6,6-dimethyl-4-(pyrazin-2-ylmethyl)-4,5-dihydro-1,3-thiazine], the inhibition of growth at 20 ppm in data set [1] and in data set [2] was no less than 80% in each case.

The molecule `CC1(C)CC(Cn2ccc(Cl)n2)N=C(c2cnc3c(F)c(F)ccc3c2)S1` (stereo not drawn) [E.11, 4-[(3-chloropyrazol-1-yl)methyl]-2-(7,8-difluoro-3-quinolyl)-6,6-dimethyl-4,5-dihydro-1,3-thiazine] displayed an inhibition of growth at 6 ppm in data set [3] of no less than 80%. The inhibition of growth at 20 ppm in data set [1] and in data set [2] was no less than 80% throughout.

As for `CC1(C)CC(Cc2cccnc2)N=C(c2cnc3c(F)cccc3c2)O1` (stereo not drawn) [E.22, 2-(8-fluoro-3-quinolyl)-6,6-dimethyl-4-(3-pyridylmethyl)-4,5-dihydro-1,3-oxazine], the inhibition of growth at 20 ppm in data set [1] and in data set [2] was no less than 80% throughout.

For the molecule `CC1(C)CC(Cn2cc(Cl)cn2)N=C(c2cnc3c(F)c(F)ccc3c2)S1` (stereo not drawn) [E.10, 4-[(4-chloropyrazol-1-yl)methyl]-2-(7,8-difluoro-3-quinolyl)-6,6-dimethyl-4,5-dihydro-1,3-thiazine], the inhibition of growth at 6 ppm in data set [3] is no less than 80%. In addition, the inhibition of growth at 20 ppm in data set [1] and in data set [2] was no less than 80% in each case.

In turn, `CC1(C)CC(Cc2cncs2)N=C(c2cnc3c(F)c(F)ccc3c2)S1` (stereo not drawn) [E.16, 2-(7,8-difluoro-3-quinolyl)-6,6-dimethyl-4-(thiazol-5-ylmethyl)-4,5-dihydro-1,3-thiazine] gave an inhibition of growth at 6 ppm in data set [3] of no less than 80%. The inhibition of growth at 20 ppm in data set [1] and in data set [2] was no less than 80% each time.
